Columns and labels:
Alpha-synuclein [1] = molecular target: T1, Alpha-synuclein (Homo sapiens, UniProt P37840); test: Inhibition of wild type alpha-synuclein aggregation (unknown origin) expressed in Escherichia coli BL21 cells incubated for 30 days by thioflavin T based fluorescence assay
Alpha-synuclein [2] = molecular target: T1, Alpha-synuclein; test: Inhibition of human alpha-synuclein aggregation expressed in Escherichia coli BL21(DE3) cells assessed as percent of un-inhibition measured at 16 hrs by thioflavin T based fluorescence assay relative to control; set-up: concentration or dose not given beside the values
Alpha-synuclein [3] = molecular target: T1, Alpha-synuclein; test: Inhibition of alpha-synuclein aggregation (unknown origin) expressed in Escherichia coli BL21(DE3) cells assessed as HFIP-induced protein aggregation measured after 16 to 18 hrs by thioflavin T based fluorescence assay relative to control; set-up: scale not given: the % may be the effect or the level left; details: time hrs 16-18
Alpha-synuclein [4] = molecular target: T1, Alpha-synuclein; test: Inhibition of alpha-synuclein aggregation (unknown origin) expressed in Escherichia coli BL21(DE3) cells; details: concentration not given here
Alpha-synuclein [5] = molecular target: T1, Alpha-synuclein; test: Inhibition of alpha-synuclein fibril formation (unknown origin) incubated for 6 days by thioflavin S based fluorescence assay
Alpha-synuclein [6] = molecular target: T1, Alpha-synuclein; test: Binding affinity to alpha-synuclein (unknown origin) expressed in Escherichia coli BL21(DE3) by circular dichroism analysis
Alpha-synuclein [7] = molecular target: T1, Alpha-synuclein; test: Inhibition of alpha-synuclein fibril formation (unknown origin) incubated for 24 hrs to 7 days by thioflavin S based fluorescence assay
Alpha-synuclein [8] = molecular target: T1, Alpha-synuclein; test: Binding affinity to alpha-synuclein preformed fibrils (unknown origin) expressed in Escherichia coli BL21(DE3) cells incubated for 30 mins by spectrofluorometric analysis
Alpha-synuclein [9] = molecular target: T1, Alpha-synuclein; test: Binding affinity to alpha-synuclein oligomer (unknown origin) expressed in Escherichia coli BL21(DE3) cells incubated for 30 mins by spectrofluorometric analysis
Alpha-synuclein [10] = molecular target: T1, Alpha-synuclein; test: Binding affinity to alpha-synuclein LMV 100 kDa (unknown origin) expressed in Escherichia coli BL21(DE3) cells incubated for 30 mins by spectrofluorometric analysis
Alpha-synuclein [11] = molecular target: T1, Alpha-synuclein; test: Binding affinity to alpha-synuclein LMV 50 kDa (unknown origin) expressed in Escherichia coli BL21(DE3) cells incubated for 30 mins by spectrofluorometric analysis
[12] = Binding affinity to alpha-synuclein A69C/F94W double-mutant (unknown origin) expressed in Escherichia coli BL21(DE3) cells assessed as binding constant for binding single molecule at 10 uM incubated for 10 mins by fluorescence analysis; set-up: species or system Homo sapiens
[13] = Binding affinity to alpha-synuclein A69C/F94W double-mutant (unknown origin) expressed in Escherichia coli BL21(DE3) cells assessed as binding constant for binding single molecule at 10 uM by absorption spectroscopy; set-up: species or system Homo sapiens
[14] = Binding affinity to alpha-synuclein A69C/F94W double-mutant (unknown origin) expressed in Escherichia coli BL21(DE3) cells assessed as binding constant for binding single molecule at 10 uM incubated for 10 mins by tryptophan fluorescence assay; set-up: species or system Homo sapiens
[15] = Binding affinity to alpha-synuclein Y39W/A69C double-mutant (unknown origin) expressed in Escherichia coli BL21(DE3) cells assessed as binding constant for binding single molecule at 10 uM incubated for 10 mins by fluorescence analysis; set-up: species or system Homo sapiens
[16] = Binding affinity to alpha-synuclein A69C/F94W double-mutant (unknown origin) expressed in Escherichia coli BL21(DE3) cells assessed as binding constant for binding two molecule at 10 uM incubated for 10 mins by fluorescence analysis; set-up: species or system Homo sapiens
[17] = Binding affinity to alpha-synuclein A69C/F94W double-mutant (unknown origin) expressed in Escherichia coli BL21(DE3) cells assessed as binding constant for binding two molecule at 10 uM by absorption spectroscopy; set-up: species or system Homo sapiens
[18] = Binding affinity to alpha-synuclein A69C/F94W double-mutant (unknown origin) expressed in Escherichia coli BL21(DE3) cells assessed as binding constant for binding two molecule at 10 uM incubated for 10 mins by tryptophan fluorescence assay; set-up: species or system Homo sapiens
[19] = Binding affinity to alpha-synuclein Y39W/A69C double-mutant (unknown origin) expressed in Escherichia coli BL21(DE3) cells assessed as binding constant for binding two molecule at 10 uM incubated for 10 mins by fluorescence analysis; set-up: species or system Homo sapiens
Alpha-synuclein [20] = molecular target: T1, Alpha-synuclein; test: Inhibition of human alpha-synuclein filament formation expressed in Escherichia coli BL21(DE3) cells incubated for 72 hrs by thioflavin S based fluorescence assay
[21] = Elimination half-life in human; assay type: ADME; details: read-out: beta t1/2 (converted)
Alpha-synuclein [22] = molecular target: T1, Alpha-synuclein; test: Inhibition of alpha-synuclein aggregation (unknown origin) incubated for 8 days by thioflavin S based fluorescence assay
Alpha-synuclein [23] = molecular target: T1, Alpha-synuclein; test: Inhibition of wild type human alpha-synuclein fibrillization expressed in Escherichia coli BL21(DE3)pLysS by thioflavin-T based fluorescence assay
[24] = molecular target: Amyloid-beta precursor protein (Homo sapiens, UniProt P05067); test: Inhibition of amyloid beta (1 to 40) (unknown origin) incubated for 24 hrs to 7 days by thioflavin S based fluorescence assay
Chain of Amyloid-beta precursor protein (P05067 whole entry): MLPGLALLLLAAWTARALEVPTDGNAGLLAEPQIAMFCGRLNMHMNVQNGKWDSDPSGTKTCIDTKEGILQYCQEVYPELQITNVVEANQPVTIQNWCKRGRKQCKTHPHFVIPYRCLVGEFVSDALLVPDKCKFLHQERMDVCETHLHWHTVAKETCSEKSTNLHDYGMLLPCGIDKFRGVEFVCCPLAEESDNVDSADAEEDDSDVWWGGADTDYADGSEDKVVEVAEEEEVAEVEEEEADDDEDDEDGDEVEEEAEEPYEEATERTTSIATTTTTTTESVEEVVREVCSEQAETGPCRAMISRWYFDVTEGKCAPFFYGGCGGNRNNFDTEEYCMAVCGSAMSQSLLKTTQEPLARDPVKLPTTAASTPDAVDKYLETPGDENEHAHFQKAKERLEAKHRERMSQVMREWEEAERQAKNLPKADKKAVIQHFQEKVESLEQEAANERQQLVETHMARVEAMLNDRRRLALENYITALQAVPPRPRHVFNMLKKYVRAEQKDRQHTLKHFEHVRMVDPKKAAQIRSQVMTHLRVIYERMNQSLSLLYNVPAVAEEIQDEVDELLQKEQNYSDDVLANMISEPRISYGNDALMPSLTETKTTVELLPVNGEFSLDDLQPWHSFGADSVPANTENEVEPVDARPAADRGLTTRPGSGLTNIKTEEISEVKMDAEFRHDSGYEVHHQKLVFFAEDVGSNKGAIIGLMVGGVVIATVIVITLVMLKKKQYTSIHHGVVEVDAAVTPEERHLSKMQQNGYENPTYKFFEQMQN

In the case of `COc1cc(/C=C/c2cc(/C=C/c3ccc(O)c(OC)c3)n(-c3cccc([N+](=O)[O-])c3)n2)ccc1O`, the IC50 (Alpha-synuclein [1]) is reported as 89.1 µM.
In the case of `CCC(=O)N[C@@H](Cc1c[nH]c2ccccc12)C(=O)N[C@H](C(=O)N1CCC[C@@H]1C(=O)NCC(=O)N[C@@H](CCCCN)C(=O)N[C@@H](Cc1c[nH]c2ccccc12)C(=O)N[C@H](C(=O)NCC(N)=O)[C@@H](C)O)[C@@H](C)CC`, the Remaining aggregation (% of control) (Alpha-synuclein [2]) is reported as 69%, the Activity (Alpha-synuclein [3]) is reported as 37% and the inhibition (Alpha-synuclein [4]) is reported as 50%.
With `CC[C@H](C)[C@H](NC(=O)[C@H](Cc1c[nH]c2ccccc12)NC(=O)[C@H](CCCCN)NC(=O)CN)C(=O)N[C@H](C(=O)N[C@H](C(=O)N[C@@H](CO)C(=O)N[C@H](C(=O)N1CCC[C@@H]1C(=O)N1CCC[C@H]1C(=O)N[C@@H](CCCCN)C(=O)N[C@@H](CCCCN)C(=O)N[C@@H](CC(C)C)C(=O)N[C@H](C(=O)N[C@H](C(=O)N[C@@H](Cc1c[nH]c2ccccc12)C(=O)N[C@H](C(=O)N1CCC[C@@H]1C(=O)O)[C@@H](C)CC)C(C)C)[C@@H](C)O)[C@@H](C)CC)C(C)C)[C@@H](C)O` the Activity (Alpha-synuclein [3]) was 34% and the inhibition (Alpha-synuclein [4]) was 65%.
`CC[C@H](C)[C@H](NC(=O)[C@H](Cc1c[nH]c2ccccc12)NC(=O)[C@H](CCCCN)NC(=O)CNC(=O)[C@H]1CCCN1C(=O)[C@@H](NC(=O)[C@H](Cc1c[nH]c2ccccc12)NC(=O)[C@@H](NC(=O)[C@@H](NC(=O)[C@H](CC(C)C)NC(=O)[C@H](CCCCN)NC(=O)[C@@H](N)CCCCN)[C@@H](C)O)C(C)C)[C@@H](C)CC)C(=O)N[C@H](C(=O)N[C@H](C(=O)N[C@@H](CO)C(=O)N[C@@H](C)C(=O)O)C(C)C)[C@@H](C)O` showed a Remaining aggregation (% of control) (Alpha-synuclein [2]) of 19%, an Activity (Alpha-synuclein [3]) of 27% and an inhibition (Alpha-synuclein [4]) of 75%.
With `CC[C@H](C)[C@H](NC(=O)[C@H](Cc1c[nH]c2ccccc12)NC(=O)[C@H](CCCCN)NC(=O)CNC(=O)[C@H]1CCCN1C(=O)[C@@H](NC(=O)[C@H](Cc1c[nH]c2ccccc12)NC(=O)[C@@H](NC(=O)[C@@H](NC(=O)[C@H](CC(C)C)NC(=O)[C@H](CS)NC(=O)[C@@H](N)CCCCN)[C@@H](C)O)C(C)C)[C@@H](C)CC)C(=O)N[C@H](C(=O)N[C@H](C(=O)N[C@@H](CS)C(=O)N[C@@H](C)C(=O)O)C(C)C)[C@@H](C)O` the Activity (Alpha-synuclein [3]) was 49% and the inhibition (Alpha-synuclein [4]) was 50%.
In the case of `CC(C)C[C@H]1C(=O)N2CCC[C@H]2[C@]2(O)O[C@](NC(=O)[C@@H]3C=C4c5cccc6[nH]c(Br)c(c56)C[C@H]4N(C)C3)(C(C)C)C(=O)N12` [BROMOCRIPTINE], the IC50 (Alpha-synuclein [5]) is reported as 24.7 µM.
With `CO/N=C(\C(=O)N[C@@H]1C(=O)N2C(C(=O)O)=C(CSc3nc(=O)c(=O)[nH]n3C)CS[C@H]12)c1csc(N)n1` [CEFTRIAXONE] the Kd (Alpha-synuclein [6]) was 0.53 µM.
In the case of `COc1cc(/C=C/c2cc(/C=C/c3ccc(O)c(OC)c3)[nH]n2)ccc1O` [CURCUMIN PYRAZOLE], the IC50 (Alpha-synuclein [1]) is reported as 127 µM.
`COc1cc(/C=C/C(=O)CC(=O)/C=C/c2ccc(O)c(OC)c2)ccc1O` [CURCUMIN] gave an IC50 (Alpha-synuclein [7]) of 0.22 µM, an IC50 (Alpha-synuclein [1]) of 162 µM and a Kd (Alpha-synuclein [8]) of 0.5 µM. The Kd (Alpha-synuclein [9]) was 2 µM, the Kd (Alpha-synuclein [10]) was 5 µM and the Kd (Alpha-synuclein [11]) was 6.5 µM. For the same compound, the Kd [12] was 0.69 µM, the Kd [13] was 10 µM and the Kd [14] was 58 µM. The Kd [15] was 0.56 µM, the Kd [16] was 7.7 µM and the Kd [17] was 21 µM. For the same compound, the Kd [18] was 20 µM and the Kd [19] was 0.85 µM.
In the case of `NCCc1ccc(O)c(O)c1` [DOPAMINE], the IC50 (Alpha-synuclein [20]) is reported as 7.1 µM and the IC50 (Alpha-synuclein [5]) is reported as 0.53 µM.
In the case of `O=C(O[C@@H]1Cc2c(O)cc(O)cc2O[C@@H]1c1ccc(O)c(O)c1)c1cc(O)c(O)c(O)c1` [EPICATECHIN GALLATE], the IC50 (Alpha-synuclein [20]) is reported as 9.8 µM and the half-life [21] is reported as 3.4 h.
`C[C@]12CC[C@@H]3c4ccc(O)cc4CC[C@H]3[C@@H]1CC[C@@H]2O` [ESTRADIOL] gave an IC50 (Alpha-synuclein [22]) of 60 µM.
Compound `C[C@]12CC[C@@H]3c4ccc(O)cc4CC[C@H]3[C@@H]1C[C@@H](O)[C@@H]2O` [ESTRIOL] has an IC50 (Alpha-synuclein [22]) of 20.1 µM.
In the case of `C[C@]12CC[C@@H]3c4ccc(O)cc4CC[C@H]3[C@@H]1CCC2=O` [ESTRONE], the IC50 (Alpha-synuclein [22]) is reported as 93.1 µM.
For `CC1=CC(=O)c2ccccc2C1=O` [MENADIONE], the IC50 (Alpha-synuclein [23]) was 15 µM.
With `CC(C)=CCC/C(C)=C/CC/C(C)=C/CC/C(C)=C/CC1=C(C)C(=O)c2ccccc2C1=O` [MENATETRENONE] the IC50 (Alpha-synuclein [23]) was 15 µM.
For `O=C1C=CC(=O)c2ccccc21` [NAPHTHOQUINONE], the IC50 (Alpha-synuclein [23]) was 15 µM.
In the case of `CC(Cc1ccc(O)c(O)c1)C(C)Cc1ccc(O)c(O)c1` (stereo not given) [NORDIHYDROGUAIARETIC ACID], the IC50 (Alpha-synuclein [22]) is reported as 0.21 µM and the IC50 (Alpha-synuclein [7]) is reported as 0.22 µM.
`CCCN1C[C@H](CSC)C[C@@H]2c3cccc4[nH]cc(c34)C[C@H]21` [PERGOLIDE] showed an IC50 (Alpha-synuclein [5]) of 7.9 µM.
In the case of `CC1=C(C/C=C(\C)CCC[C@H](C)CCC[C@H](C)CCCC(C)C)C(=O)c2ccccc2C1=O` [PHYTONADIONE], the IC50 (Alpha-synuclein [23]) is reported as 15 µM.
For `CC1=C(/C=C/C(C)=C/C=C/C(C)=C/C=O)C(C)(C)CCC1` [RETINAL], the IC50 (Alpha-synuclein [7]) was 0.19 µM and the IC50 [24] was 0.18 µM.
In the case of `CC1=C(/C=C/C(C)=C/C=C/C(C)=C/CO)C(C)(C)CCC1` [RETINOL], the IC50 (Alpha-synuclein [7]) is reported as 0.19 µM and the IC50 [24] is reported as 0.18 µM.
`C#CCN(C)[C@H](C)Cc1ccccc1` [SELEGILINE] showed an IC50 (Alpha-synuclein [5]) of 0.27 µM.
`C[C@]12CC[C@H]3[C@@H](CCC4=CC(=O)CC[C@@]43C)[C@@H]1CC[C@@H]2O` [TESTOSTERONE] showed an IC50 (Alpha-synuclein [22]) of 96.8 µM.
`CC1=C(/C=C/C(C)=C/C=C/C(C)=C/C(=O)O)C(C)(C)CCC1` [TRETINOIN] gave an IC50 (Alpha-synuclein [7]) of 3 µM and an IC50 [24] of 0.18 µM.

Source: ChEMBL document CHEMBL4699438, “Toward the discovery and development of effective modulators of α-synuclein amyloid aggregation” (Eur J Med Chem, 2019)
